Columns and labels:
[1] = target: T1, recombinant human p38α MAP kinase (Homo sapiens, UniProt Q16539); experiment: Study on p38α MAP kinase inhibitory activity (ATF2 phosphorylation, Alpha Screen); type: biochemical; details: biotinylated ATF2 substrate, 30° C. for 30 minutes
T1 construct: purchased Upstate Biotechnology #14-251
Experimental: Study on p38α MAP Kinase Inhibitory Activity
Using activating transcription factor-2 (hereinafter abbreviated to ATF2) which is a substrate for p38α MAP kinase, the inhibitory action of the compounds of the present invention was investigated on the phosphorylation by a recombinant human p38α MAP kinase.
A kinase buffer (25 mM Tris-HCl (pH 7.5), 5 mM β-glycerophosphate, 2 mM dithiothreitol, 0.1 mM Na3VO4, 10 mM MgCl2) containing a recombinant human p38α MAP kinase (Upstate Biotechnology #14-251) was added to a 384-well plate (5 μL) (6.25 ng protein/well) for fluorescence measurement. After addition of a kinase buffer (5 μL) containing the compound of the present invention, the resulting mixture was incubated at room temperature for 20 minutes. A substrate mixture (5 μL) of biotinylated ATF2 of 5 μg/mL (Upstate Biotechnology #14-432), adenosine triphosphate (90 μmol/L) (Sigma #FL-AAS) and anti-phosphorylated ATF2 antibody (20-fold dilution) (Cell Signaling Technology #9221L) prepared separately was added thereto, and enzyme reaction was carried out at 30° C. for 30 minutes. After the reaction, Hepes buffer (5 μL) containing 0.25% BSA and 100 mM EDTA was added to stop the enzyme reaction. The amount of a complex of the phosphorylated ATF2 and anti-phosphorylated ATF2 antibody produced by the reaction was measured using an Alpha Screen™ Rabbit Detection kit (Packard #6760607).
The p38α MAP kinase inhibitory activity, which is the effect of the compound of the present invention, was calculated as an inhibition rate (%) according to the following equation: Inhibition rate (%)={(AC−AX)/(AC−AB)}×100
wherein AB is a measured value without addition of the enzyme;
AC is a measured value with addition of the enzyme in the absence of a test compound; and
AX is a measured value with addition of the enzyme in the presence of a test compound.
(§1) Inhibition rate of compounds with each concentration was calculated, and a value indicating 50% inhibition (IC50) was determined from the inhibition curve.

[2] = system: TNF-α production stimulated by lipopolysaccharide (LPS) in THP-1; experiment: Inhibitory activity against TNF-α production using human cell lines (LPS-stimulated THP-1); type: cell-based; details: 1.5 h, THP-1 cells, LPS stimulation, 90 minutes at 37° C., TNF-α by ELISA
Experimental: Inhibitory Activity against TNF-α Production using Human Cell Lines
Using THP-1 which is a human monocytic cell line, the inhibitory effect of the compound of the present invention against TNF-α production stimulated by lipopolysaccharide (LPS) was studied.
Each 50 μL of lipopolysaccharide (LPS; 055:B5, Difco) prepared to a concentration of 40 ng/mL using RPMI-1640 medium containing 10% fetal calf serum (hereinafter abbreviated to RPMI-1640) and RPMI-1640 containing the compound of the present invention was added to a 96-well plate for cell culture. 100 μL of the cell suspension of THP-1 (Dainippon Pharmaceutical Co., Ltd, #06-202) prepared to a cell density of 2×10^6 cells/mL using RPMI-1640 was added and cultured for 90 minutes at 37° C. in an incubator (5% CO2, 95% air). After completion of the reaction, the culture medium supernatant was recovered and the amount of produced TNF-α was measured using an ELISA kit (Invitrogen, #850090192).
The inhibitory activity against TNF-α production, which is the effect of the compound of the present invention, was calculated as an inhibition rate (%) by the following equation: Inhibition rate (%)={(AC−AX)/(AC−AB)}×100
wherein AB is a measured value without LPS induction;
AC is a measured value with LPS induction in the absence of a test compound; and
AX is a measured value with LPS induction in the presence of a test compound.
as §1

[3] = system: TNF-α production induced by lipopolysaccharide (LPS) in rats; experiment: Rat cytokine-production model; type: in vivo; details: male SD rat, oral 0.3 mg/kg, LPS 10 μg/kg intravenously after 8 hours, plasma TNF-α ninety minutes after LPS; read-out: Inhibition rate (%) (Dose of compound: 0.3 mg/kg)
Experimental: Rat Cytokine-Production Model
The in vivo effect of the compound of the present invention was studied on TNF-α production induced by lipopolysaccharide (LPS) in rats.
A vehicle containing the compound of the present invention was orally administered to male SD rat (Charles River Japan, Inc.), and after 8 hours, lipopolysaccharide (LPS, 055:B5, Difco) was intravenously administered at the dose of 10 μg/kg (5 animals/group). Only a vehicle was orally administered to a control group (5 animals). Ninety minutes after the LPS treatment, heparinized blood collection was performed via the abdominal vena cava under anesthesia with ether, and blood plasma was obtained by centrifugation (12,000 rpm, 3 minutes, 4° C.). The obtained blood plasma sample was stored at −80° C. until it was used. TNF-α in the blood plasma was measured using an ELISA kit from R&D System (#RTA00).
The inhibitory activity of the compound of the present invention against TNF-α production was calculated as an inhibition rate (%) according to the following equation: Inhibition rate (%)={(AC−AX)/AC}×100
wherein AC is a measured value in case where no test compound was administered under LPS induction, and
AX is a measured value in case where a test compound was administered under LPS induction.

[4] = system: Chinese hamster lung cells (CHL/IU); experiment: Phospholipidosis detection system using a fluorescence labeling phospholipid analog (NBD-PE); type: cell-based
Experimental: Study by a Phospholipidosis Detection System using a Fluorescence Labeling Phospholipid Analog Cell suspension (7×10^4 cells/ml) of Chinese hamster lung cells (CHL/IU) prepared using MEM (minimum essential medium) was added to a 96 well plate (96 well clear bottom plate) by 100 μL/necessary number of wells (2 wells for 1 dosage) and cultured for about 24 hours. After the culturing and subsequent removal of the supernatants on the 96 well plate, the compounds having respective concentrations prepared by dissolving or suspending in MEM medium containing 25 μmol/L of nitrobenzoxazole dipalmitoyl phosphatidyl ethanolamine (NBD-PE) (hereinafter abbreviated to NBD-PE medium) were added thereto by 100 μL/ well and treated for about 24 hours. Treating concentration of each compound was set to be 6.25, 12.5, 25, 50 or 100 μmol/L. […] In this connection, 5 wells of an untreated control (MEM medium alone) or an NBD-PE control (prepared by adding 1/100 volume of DMSO to the NBD-PE medium) were arranged for each compound and cultured in the same manner. After completion of the culturing and subsequent two times of washing with 100 μL/well of phosphate buffered saline (hereinafter abbreviated to PBS) (−), 100 μL of the MEM medium was added to all of the treated wells including two empty wells for the WST-1 background control and cultured for about 0.5 hour. Fluorescence intensity of each well was measured using a microplate reader (manufactured by Molecular Devices, SPECTRA max M2; excitation wavelength 485 nm/fluorescence wavelength 535 nm). Using average value of 2 wells for each dosage, the phospholipid increasing ratio (%) based on NBD-PE control was calculated using the following formula. Phospholipid accumulation increasing ratio (%)=100×(fluorescence intensity of substance to be tested−fluorescence intensity of untreated control)/(fluorescence intensity of NBD-PE control−fluorescence intensity of untreated control) (iii) Cytotoxicity Test The Pre value was calculated by measuring the 96 well plate which was measured in the measurement of phospholipid accumulation, using the microplate reader (manufactured by Molecular Devices, SPECTRA max M2) at a dominant wavelength of 450 nm and a correction wavelength of 690 nm. Premix WST-1 was added to the pre-measured 96 well plate by 5 μL/well. After 2 to 4 hours of culture, the Aft value was calculated by measuring in the same manner as in the Pre measurement. The background control value was subtracted from each of the measured values. Using the value obtained by subtracting the Pre value from the Aft value, the cell growth ratio (%) was calculated using the following formula.

[5] = Evaluation of artificial lipid membrane binding using a Biacore S51 system
Experimental: Evaluation of Artificial Lipid Membrane Binding using a Biacore S51 (Registered Trademark) System
Using an aspirator, 10 mM of 1,2-dioleoyl-sn-glycero-3-phosphate monosodium salt (hereinafter abbreviated to DOPA) chloroform solution was evaporated to be dryness, and 0.6 mL of PBS/5% dimethyl sulfoxide (hereinafter abbreviated to DMSO) was added thereto. After carrying out thorough suspension by vortex, freezing and thawing were repeated for 5 times. Liposomes were prepared using a liposome preparation device (manufactured by Avestin Inc.) and two syringes and diluted to be 0.5 mM with PBS/5% DMSO just before the immobilization.
Each compound having a final concentration in PBS/5% DMSO of 50 μM was prepared by adding 38 μL of 1× PBS to 2 μL of 10 mM DMSO solution and further adding 360 μL of 1× PBS/5% DMSO and measured.
All of the following analyses were carried out using the Biacore S51 (registered trademark) system, and the measuring conditions were set up by Biacore S51 Control Software.
The measuring temperature was set to be 37° C., and PBS/5% DMSO (pH 7.4 or pH 6.0) was used as the buffer. Series S Sensor Chip L1 was used as the sensor chip. DOPA was immobilized on one of the measuring spots on the sensor surface, and the central spot was used as the reference.
Immobilization of the liposomes was carried out for about 3 minutes at a flow rate of 10 μL/minute, and then each compound was added thereto at a flow rate of 30 μL/minute to measure the interaction. The measuring conditions are as shown in the following.
Assay buffer: PBS/5% DMSO (pH 7.4 or pH 6.0)
Measuring temperature: 37° C.
Sensor chip: Series S Sensor Chip L1
Flow rate: 10 μL/minute at the time of liposome immobilization, 30 μL/minute at the time of interaction measurement
Regeneration: 20 mM CHAPS (3-[(3-cholamidopropyl)dimethylammonio]-1-propanesulfonate), an isopropanol/50 mM aqueous solution of sodium hydroxide=40/60 (volume ratio) mixed solution (60 seconds)
The data treatment was carried out in accordance with the method of Abdiche et al. (Analytical Biochemistry, 328, 233-243 (2004)) using Biacore S51 Evaluation Software.
After correcting infinitesimal error of the concentration of DMSO contained in the sample solution, the value of binding response (RU) obtained by subtracting the value of reference was divided by the sample molecular weight. Additionally, since the thus obtained value is proportional to the capturing amount of liposome, it was divided by the capturing amount at the time of the cycling and multiplied by 10^6 to be used as the correction value (correction value=1000000×RU (compound to be tested)/molecular weight (compound to be tested) RU (liposome)).
By adding propranolol, amiodarone, desipramine, imipramine and procaine as controls, it was confirmed that variation of the binding response is within about 10 to 15%.
Compounds having a binding response value after correction of 100 or more were judged positive.

T1 sequence (Q16539 whole entry): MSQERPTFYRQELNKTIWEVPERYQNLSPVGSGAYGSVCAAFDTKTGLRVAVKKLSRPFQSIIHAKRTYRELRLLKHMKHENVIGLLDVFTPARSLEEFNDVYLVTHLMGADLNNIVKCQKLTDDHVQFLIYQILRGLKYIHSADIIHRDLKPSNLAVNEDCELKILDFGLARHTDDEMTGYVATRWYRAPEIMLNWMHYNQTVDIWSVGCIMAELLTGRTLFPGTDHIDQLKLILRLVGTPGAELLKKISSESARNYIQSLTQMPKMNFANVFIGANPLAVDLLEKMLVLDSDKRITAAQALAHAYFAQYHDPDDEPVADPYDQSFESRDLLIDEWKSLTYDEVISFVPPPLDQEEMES

IC50 [1] [nM]	IC50 [2] [nM]	Binding Level (RU) ([5]; compound 50 μM, DOPA liposomes on Sensor Chip L1, 37° C., PBS/5% DMSO (pH 7.4 or pH 6.0))	SMILES	inhibition at 0.3 mg/kg [3] [%]	Pospholipid accumulation increasing ratio (% of 30 uM amiodarone) (Dose of compound: 100 uM) ([4]; compound 100 uM, about 24 hours with NBD-PE)	Judgment ([4]; phospholipidosis inducing activity, NBD-PE)	Judgment ([5]; phospholipidosis inducing activity judged from artificial lipid membrane binding)
12	2.6		Cc1cc(Cl)cc(C)c1-n1cc(-c2nc(C(C)(CO)CO)oc2-c2ccc(F)cc2F)ccc1=O [Compound 6a, 1-(4-chloro-2,6-dimethylphenyl)-5-{5-(2,4-difluorophenyl)-2-[2-hydroxy-1-(hydroxymethyl)-1-methylethyl]-1,3-oxazol-4-yl}-2(1H)-pyridinone]				
5.8	0.7		C[C@](O)(CO)c1nc(-c2ccc(F)cc2F)c(-c2ccc(=O)n(-c3c(F)cccc3F)c2)o1 [Example 210, 1-(2,6-difluorophenyl)-5-{4-(2,4-difluorophenyl)-2-[(1S)-1,2-dihydroxy-1-methylethyl]-1,3-oxazol-5-yl}-2(1H)-pyridinone]	49	8 % of 30 uM amiodarone	Negative	
1.7	0.7	15.5	CC(C)(O)c1nc(-c2ccc(F)cc2F)c(-c2ccc(=O)n(-c3c(F)cccc3F)c2)o1 [Compound 89 (b), 1-(2,6-difluorophenyl)-5-[4-(2,4-difluorophenyl)-2-(1-hydroxy-1-methylethyl)-1,3-oxazol-5-yl]-2(1H)-pyridinone]	82			Negative

— US7968572B2, “Nitrogen-containing heterocyclic compound and pharmaceutical application thereof” (Ono Pharmaceuticals Co., Ltd., priority 2005, dated 2011)
